{
  "source": "ChEMBL document CHEMBL4834480",
  "about": "“Discovery of 3,5-Dimethyl-4-Sulfonyl-1H-Pyrrole-Based Myeloid Cell Leukemia 1 Inhibitors with High Affinity, Selectivity, and Oral Bioavailability” (J Med Chem, 2021)",
  "key": {"Bcl-2-related protein A1": {"biological_target": "T1, Bcl-2-related protein A1 (Homo sapiens, UniProt Q16548)", "T1 sequence (Q16548 whole entry)": "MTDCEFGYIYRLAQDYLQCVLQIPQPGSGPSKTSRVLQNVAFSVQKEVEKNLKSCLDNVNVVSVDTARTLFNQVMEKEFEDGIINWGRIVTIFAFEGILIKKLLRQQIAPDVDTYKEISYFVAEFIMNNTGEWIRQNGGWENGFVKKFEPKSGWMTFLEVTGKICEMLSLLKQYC", "test": "Binding affinity to human partial length BCL2A1 (M1 to G153 residues) expressed in bacterial expression system by BCL2SCAN assay"}, "[1]": {"biological_target": "Induced myeloid leukemia cell differentiation protein Mcl-1 (Homo sapiens, UniProt Q07820)", "sequence (Q07820 whole entry, the tested form may be a part)": "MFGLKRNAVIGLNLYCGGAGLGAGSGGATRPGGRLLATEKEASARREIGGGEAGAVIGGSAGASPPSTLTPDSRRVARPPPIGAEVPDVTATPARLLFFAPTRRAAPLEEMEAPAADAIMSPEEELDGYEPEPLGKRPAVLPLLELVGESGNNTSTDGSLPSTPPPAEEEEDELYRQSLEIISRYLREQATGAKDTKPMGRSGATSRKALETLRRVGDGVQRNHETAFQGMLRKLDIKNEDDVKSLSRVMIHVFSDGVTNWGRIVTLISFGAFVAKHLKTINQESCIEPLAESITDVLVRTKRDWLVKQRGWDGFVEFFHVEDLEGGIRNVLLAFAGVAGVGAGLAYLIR", "test": "Inhibition of FITC-labeled Bak BH3 peptide binding to GST-tagged MCL1 (171 to 327 residues) (unknown origin) expressed in Escherichia coli BL21 (DE3) incubated for 30 mins fluorescence polarization-based competitive binding assay"}, "Bcl-2-like protein 1": {"biological_target": "Bcl-2-like protein 1 (Homo sapiens, UniProt Q07817)", "sequence (Q07817 whole entry, the tested form may be a part)": "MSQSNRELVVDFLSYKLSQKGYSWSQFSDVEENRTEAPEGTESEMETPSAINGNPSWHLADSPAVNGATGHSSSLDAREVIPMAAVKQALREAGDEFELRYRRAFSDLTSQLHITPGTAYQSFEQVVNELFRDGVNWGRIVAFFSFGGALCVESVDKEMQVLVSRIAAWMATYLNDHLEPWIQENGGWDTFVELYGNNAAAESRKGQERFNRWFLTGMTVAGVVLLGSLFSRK", "test": "Binding affinity to human partial length BCL-XL (M1 to R209 residues) expressed in bacterial expression system by BCL2SCAN assay"}, "SK-BR-3": {"tested_on": "SK-BR-3", "test": "Antiproliferative activity against human SK-BR-3 cells assessed as decrease in cell viability measured after 72 hrs by MTT assay", "type": "functional, cell-based", "details": "SK-BR-3, 72 h"}, "NCI-H929 [2]": {"tested_on": "NCI-H929", "test": "Induction of apoptosis in human NCI-H929 cells assessed as activation of caspase 3 after 4 hrs by luminescence based microplate reader assay", "type": "functional, cell-based", "details": "dose microM <=5, time 4.0 hrs"}, "NCI-H929 [3]": {"tested_on": "NCI-H929", "test": "Induction of apoptosis in human NCI-H929 cells assessed as activation of caspase 7 after 4 hrs by luminescence based microplate reader assay", "type": "functional, cell-based", "details": "dose microM <=5, time 4.0 hrs"}, "K562 [4]": {"tested_on": "K562", "test": "Induction of apoptosis in human K562 cells assessed as activation of caspase 3 up to 5 uM after 4 hrs by luminescence based microplate reader assay", "type": "functional, cell-based", "details": "dose microM <=5, time 4.0 hrs"}, "K562 [5]": {"tested_on": "K562", "test": "Induction of apoptosis in human K562 cells assessed as activation of caspase 7 up to 5 uM after 4 hrs by luminescence based microplate reader assay", "type": "functional, cell-based", "details": "dose microM <=5, time 4.0 hrs"}, "CYP2C19": {"biological_target": "CYP2C19 (Homo sapiens, UniProt P33261)", "sequence (P33261 whole entry)": "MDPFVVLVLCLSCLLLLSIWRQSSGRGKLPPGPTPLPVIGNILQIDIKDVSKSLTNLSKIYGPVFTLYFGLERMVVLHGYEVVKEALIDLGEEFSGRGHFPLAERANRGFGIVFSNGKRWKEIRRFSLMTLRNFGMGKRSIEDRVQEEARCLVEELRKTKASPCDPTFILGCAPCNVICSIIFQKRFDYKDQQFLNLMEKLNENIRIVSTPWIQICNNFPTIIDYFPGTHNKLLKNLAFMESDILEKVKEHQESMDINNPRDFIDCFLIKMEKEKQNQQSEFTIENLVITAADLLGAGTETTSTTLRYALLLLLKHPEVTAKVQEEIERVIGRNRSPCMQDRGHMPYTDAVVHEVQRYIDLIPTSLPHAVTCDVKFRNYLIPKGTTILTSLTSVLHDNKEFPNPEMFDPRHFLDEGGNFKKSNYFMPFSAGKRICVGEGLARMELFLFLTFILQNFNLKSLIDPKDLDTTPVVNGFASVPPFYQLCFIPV", "test": "Inhibition of CYP2C19 (unknown origin) at 10 uM preincubated for 5 min followed by NADPH addition and measured after 20 mins by LC-MS/MS analysis relative to control", "type": "ADME", "details": "time 25 min"}, "[6]": {"test": "Stability of the compound in simulated gastric fluid assessed as parent compound remaining measured after 6 hrs", "type": "ADME", "details": "read-out: Stabilty"}, "[7]": {"test": "Stability of the compound in human plasma assessed as parent compound remaining measured after 2 hrs by LC-MS/MS analysis", "type": "ADME, cell-free", "details": "read-out: Stabilty"}, "[8]": {"test": "Half life in rat liver microsomes", "type": "ADME, Microsome"}, "[9]": {"test": "Intrinsic clearance in rat liver microsomes", "type": "ADME, Microsome", "details": "read-out: CLH"}, "[10]": {"test": "Stability in rat liver microsomes assessed as parent compound remaining preincubated for 5 mins followed by NADPH addition and measured after 30 mins by LC-MS/MS analysis", "type": "ADME, Microsome", "details": "time 35 min, read-out: Stabilty"}, "[11]": {"test": "Half life in human liver microsomes", "type": "ADME, Microsome"}, "P-gp": {"biological_target": "P-gp (Homo sapiens, UniProt P08183)", "sequence (P08183 whole entry)": "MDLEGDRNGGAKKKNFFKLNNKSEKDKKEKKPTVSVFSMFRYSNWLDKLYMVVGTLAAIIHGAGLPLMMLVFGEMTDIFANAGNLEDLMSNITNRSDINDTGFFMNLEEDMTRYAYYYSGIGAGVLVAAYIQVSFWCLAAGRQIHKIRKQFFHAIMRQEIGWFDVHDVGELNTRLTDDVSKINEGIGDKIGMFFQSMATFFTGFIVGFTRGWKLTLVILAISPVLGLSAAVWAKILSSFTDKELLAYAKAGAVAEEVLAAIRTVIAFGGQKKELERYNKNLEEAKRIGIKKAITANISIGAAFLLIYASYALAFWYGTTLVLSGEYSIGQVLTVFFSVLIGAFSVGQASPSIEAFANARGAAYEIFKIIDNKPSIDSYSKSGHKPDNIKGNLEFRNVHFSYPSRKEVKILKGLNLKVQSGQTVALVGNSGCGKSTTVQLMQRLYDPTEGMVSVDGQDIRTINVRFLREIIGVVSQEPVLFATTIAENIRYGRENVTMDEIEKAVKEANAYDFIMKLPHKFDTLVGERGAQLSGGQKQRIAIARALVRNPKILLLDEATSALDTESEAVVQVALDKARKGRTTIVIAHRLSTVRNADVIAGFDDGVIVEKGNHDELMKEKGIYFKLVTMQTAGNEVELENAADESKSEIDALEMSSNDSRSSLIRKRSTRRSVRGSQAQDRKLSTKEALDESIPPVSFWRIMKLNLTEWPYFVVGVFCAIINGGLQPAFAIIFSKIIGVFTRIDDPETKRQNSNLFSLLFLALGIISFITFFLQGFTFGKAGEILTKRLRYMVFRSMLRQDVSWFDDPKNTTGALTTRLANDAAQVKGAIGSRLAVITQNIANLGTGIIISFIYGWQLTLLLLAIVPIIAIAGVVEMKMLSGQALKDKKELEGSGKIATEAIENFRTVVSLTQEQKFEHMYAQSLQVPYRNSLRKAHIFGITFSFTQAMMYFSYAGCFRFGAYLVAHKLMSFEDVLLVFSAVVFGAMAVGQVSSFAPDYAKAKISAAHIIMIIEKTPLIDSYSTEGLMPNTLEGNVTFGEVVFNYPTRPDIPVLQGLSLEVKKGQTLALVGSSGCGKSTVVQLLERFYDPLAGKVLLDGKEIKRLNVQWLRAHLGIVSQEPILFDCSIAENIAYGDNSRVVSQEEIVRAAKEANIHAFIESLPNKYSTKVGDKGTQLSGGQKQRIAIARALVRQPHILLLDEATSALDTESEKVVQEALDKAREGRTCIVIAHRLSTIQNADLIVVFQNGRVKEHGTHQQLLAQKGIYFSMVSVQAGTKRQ", "test": "Substrate activity at P-gp in human Caco-2 cells assessed as efflux ratio of permeability by LC-MS/MS analysis", "type": "ADME, cell-based"}, "[12]": {"test": "Half life in Sprague-Dawley rat at 3 mg/kg, iv measured up to 24 hrs by LC-MS/MS analysis", "type": "ADME, organism-based", "details": "in vivo"}, "[13]": {"test": "Half life in Sprague-Dawley rat at 10 mg/kg, po measured up to 24 hrs by LC-MS/MS analysis", "type": "ADME, organism-based", "details": "in vivo"}, "[14]": {"test": "Clearance in Sprague-Dawley rat at 10 mg/kg, po measured up to 24 hrs by LC-MS/MS analysis", "type": "ADME, organism-based", "details": "in vivo"}, "[15]": {"test": "Apparent volume of distribution in Sprague-Dawley rat at 10 mg/kg, po measured up to 24 hrs by LC-MS/MS analysis", "type": "ADME, organism-based", "details": "in vivo"}, "MV4-11 [16]": {"tested_on": "MV4-11", "test": "Antitumor activity against human MV4-11 cells xenografted in BALB/c nude mouse assessed as tumor growth inhibition by measuring T/C ratio at 60 mg/kg, po administered every two days for 14 days relative to control", "type": "functional", "details": "time 14 day"}, "[17]": {"test": "Toxicity in BALB/c nude mouse xenografted with human MV4-11 cells assessed as effect on body weight at 60 mg/kg, po administered every two days for 14 days", "type": "organism-based", "details": "in vivo, 336 h, time 14 day"}, "[18]": {"test": "Toxicity in BALB/c nude mouse xenografted with human MV4-11 cells assessed as effect on heart weight at 20 mg/kg, ip administered every two days for 14 days", "type": "organism-based", "details": "in vivo, 336 h, time 14 day"}, "[19]": {"test": "Toxicity in BALB/c nude mouse xenografted with human MV4-11 cells assessed as effect on liver weight at 20 mg/kg, ip administered every two days for 14 days", "type": "organism-based", "details": "in vivo, 336 h, time 14 day"}, "[20]": {"test": "Toxicity in BALB/c nude mouse xenografted with human MV4-11 cells assessed as effect on kidney weight at 20 mg/kg, ip administered every two days for 14 days", "type": "organism-based", "details": "in vivo, 336 h, time 14 day"}, "[21]": {"test": "Toxicity in BALB/c nude mouse xenografted with human MV4-11 cells assessed as effect on heart weight at 60 mg/kg, po administered every two days for 14 days", "type": "organism-based", "details": "in vivo, 336 h, time 14 day"}, "[22]": {"test": "Toxicity in BALB/c nude mouse xenografted with human MV4-11 cells assessed as effect on liver weight at 60 mg/kg, po administered every two days for 14 days", "type": "organism-based", "details": "in vivo, 336 h, time 14 day"}, "[23]": {"test": "Toxicity in BALB/c nude mouse xenografted with human MV4-11 cells assessed as effect on kidney weight at 60 mg/kg, po administered every two days for 14 days", "type": "organism-based", "details": "in vivo, 336 h, time 14 day"}, "MV4-11 [24]": {"tested_on": "MV4-11", "test": "Antitumor activity against human MV4-11 cells xenografted in BALB/c nude mouse assessed as induction of tumor necrosis at 20 mg/kg, ip administered every two days for 14 days by hematoxyin-eosin staining based analysis", "type": "functional, organism-based", "details": "time 14.0 day"}, "MV4-11 [25]": {"tested_on": "MV4-11", "test": "Antitumor activity against human MV4-11 cells xenografted in BALB/c nude mouse assessed as induction of tumor necrosis at 60 mg/kg, po administered every two days for 14 days by hematoxyin-eosin staining based analysis", "type": "functional, organism-based", "details": "time 14.0 day"}, "[26]": {"test": "Toxicity in BALB/c nude mouse xenografted with human MV4-11 cells assessed as effect on liver at 60 mg/kg, po administered every two days for 14 days by hematoxyin-eosin staining based analysis", "type": "organism-based", "details": "in vivo, 336 h, time 14 day"}, "[27]": {"test": "Toxicity in BALB/c nude mouse xenografted with human MV4-11 cells assessed as effect on kidney at 60 mg/kg, po administered every two days for 14 days by hematoxyin-eosin staining based analysis", "type": "organism-based", "details": "in vivo, 336 h, time 14 day"}, "[28]": {"test": "Toxicity in BALB/c nude mouse xenografted with human MV4-11 cells assessed as effect on kidney at 20 mg/kg, ip administered every two days for 14 days by hematoxyin-eosin staining based analysis", "type": "organism-based", "details": "in vivo, 336 h, time 14 day"}, "MV4-11 [29]": {"tested_on": "MV4-11", "test": "Induction of apoptosis in human MV4-11 cells xenografted in BALB/c nude mouse assessed as induction of PARP cleavage at 20 mg/kg, ip administered every two days for 14 days by Western blot analysis", "type": "functional, organism-based", "details": "time 14.0 day"}},
  "note": "Calls of active or inactive are those of the source. The rule behind the calls is not given here.",
  "data": [
    {"smiles": "CC(=O)c1ccc(S(=O)(=O)c2c(C)c(C(=O)O)n(CCCOc3cc(C)c(Cl)c(C)c3)c2C)cc1", "values": [
      {"measurement": "Kd", "setting": "Bcl-2-related protein A1", "result": "> 10000", "unit": "nM"},
      {"measurement": "Ki", "setting": "[1]", "result": 20, "unit": "nM"},
      {"measurement": "Kd", "setting": "Bcl-2-like protein 1", "result": "> 10000", "unit": "nM"},
      {"measurement": "IC50", "setting": "SK-BR-3", "result": 2840, "unit": "nM"},
      {"measurement": "Activity", "setting": "NCI-H929 [2]", "result": "Dose-Dependent Effect"},
      {"measurement": "Activity", "setting": "NCI-H929 [3]", "result": "Dose-Dependent Effect"},
      {"measurement": "Activity", "setting": "K562 [4]", "result": "inactive"},
      {"measurement": "Activity", "setting": "K562 [5]", "result": "inactive"},
      {"measurement": "inhibition at 20 min, 10 µM", "setting": "CYP2C19", "result": 2.85, "unit": "%"},
      {"measurement": "remaining at 6 h", "setting": "[6]", "result": 84.5, "unit": "%"},
      {"measurement": "remaining at 2 h", "setting": "[7]", "result": 96.5, "unit": "%"},
      {"measurement": "half-life", "setting": "[8]", "result": 0.75, "unit": "h"},
      {"measurement": "microsomal CLint", "setting": "[9]", "result": 31.4, "unit": "µL/min/mg"},
      {"measurement": "remaining at 0.5 h", "setting": "[10]", "result": 58.1, "unit": "%"},
      {"measurement": "half-life", "setting": "[11]", "result": 0.83, "unit": "h"},
      {"measurement": "efflux ratio", "setting": "P-gp", "result": 0.1},
      {"measurement": "half-life", "setting": "[12]", "result": 2.3, "unit": "h"},
      {"measurement": "half-life", "setting": "[13]", "result": 2.1, "unit": "h"},
      {"measurement": "CL/F", "setting": "[14]", "result": 36.8, "unit": "mL/min/kg"},
      {"measurement": "Vz", "setting": "[15]", "result": 6.65475, "unit": "L/kg"},
      {"measurement": "T/C", "setting": "MV4-11 [16]", "result": 37.3, "unit": "%"},
      {"measurement": "Activity", "setting": "[17]", "result": "Non-Toxic"},
      {"measurement": "Activity", "setting": "[18]", "result": "Non-Toxic"},
      {"measurement": "Activity", "setting": "[19]", "result": "Non-Toxic"},
      {"measurement": "Activity", "setting": "[20]", "result": "Non-Toxic"},
      {"measurement": "Activity", "setting": "[21]", "result": "Non-Toxic"},
      {"measurement": "Activity", "setting": "[22]", "result": "Non-Toxic"},
      {"measurement": "Activity", "setting": "[23]", "result": "Non-Toxic"},
      {"measurement": "Activity", "setting": "MV4-11 [24]", "result": "Active"},
      {"measurement": "Activity", "setting": "MV4-11 [25]", "result": "Active"},
      {"measurement": "Activity", "setting": "[26]", "result": "Non-Toxic"},
      {"measurement": "Activity", "setting": "[27]", "result": "Non-Toxic"},
      {"measurement": "Activity", "setting": "[28]", "result": "Non-Toxic"},
      {"measurement": "Activity", "setting": "MV4-11 [29]", "result": "Active"}
    ]}
  ]
}
